Results published in US20060100175A1, “Novel therapeutic use of low molecular weight heparins” (Aventis Pharma S.A., priority 1998, published 2006).

System: motoneurons plated on astrocyte monolayers
Experiment: Potentiation effect on the stimulation of the trophic motoneuron activity (SIN-1 treated astrocyte monolayers)
Assay type: cell-based, rat
Conditions: SIN-1 2 mM, 1 hour on astrocyte monolayers
Method: The cultures enriched in motoneurons are prepared using the centrifugation method described by R. L. Schnaar and A. E. Schaffner, J. Neurosci., 1, 204-217 (1981) and modified by W. Camu and C. E. Henderson, J. Neurosci. Methods, 44, 59-70 (1992). Spinal cords from E15 rat embryos are dissected sterilely and the spinal notochords are removed. They are then cut up and incubated for 15 minutes at 37° C. in PBS (phosphate buffered saline: 137 mM NaCl, 2.68 mM KCl, 6.45 mM Na2HPO4, 1.47 mM KH2PO4) to which 0.05% of trypsin has been added. The dissociation of the cells is completed by trituration with the end of a 1 ml pipette in the culture medium supplemented with bovine serum albumin (BSA) and with DNAase. The cell suspension is spread onto a band of 6.5% weight/volume metrizamide in L15 medium (sold by Gibco BRL) and centrifuged at 500 g for 15 minutes. The band of the interface containing the motoneurons is recovered. […]
The number of motoneurons is evaluated by counting labeled cells in a surface area of 1.44 cm^2 under a microscope giving a 200-fold magnification. The values are expressed as a number of motoneurons per cm^2 or a percentage of the number of motoneurons present in the cultures maintained with trophic factors (BDNF/NT5 […]). […]

[NH-]c1c[n+](N2CCOCC2)no1 [SIN-1]
Number of motoneurons % with respect to the control: 125%
